Source: patent US9579358B2, “Compositions for binding to amyloid proteins” (LANCASTER UNIVERSITY BUSINESS ENTERPRISES LIMITED, priority 2011, dated 2017)
Non-standard residues stand in square brackets, D forms with d. Residues, ends and D or L forms follow the SMILES beside them. No end group written: not given here.

Experiments:
Aβ42 [1] = molecular target: T1, Aβ42 (Homo sapiens, UniProt P05067); assay: Sandwich immunoassay (6E10) for Aβ oligomers; type: biochemical; conditions: 2:1 and 1:1 molar ratios of inhibitor:Aβ42; from 4 and 8 h
T1 construct: Recombinant Aβ42, Ultrapure, was purchased from rPeptide, Bogart, Ga., USA; purchased rPeptide, Bogart, Ga., USA
T1 sequence (P05067 672-713 limits assumed): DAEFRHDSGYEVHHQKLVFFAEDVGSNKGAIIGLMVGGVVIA
Procedure: These inhibitors were also tested in an immunoassay technique for the detection of early-stage Aβ oligomers. This assay uses monoclonal anti-Aβ antibody 6E10 to capture Aβ from solution and a biotinylated form of 6E10 as the detection antibody, in a sandwich system. Monomeric Aβ has only a single 6E10 epitope, which is occupied by the capture antibody, and so it cannot subsequently bind to the detection antibody. On the other hand, multimeric Aβ has binding sites available for both capture and detection, giving rise to a strong immunoassay signal. In Aβ aggregation time-course experiments, this assay produces a signal before the ThT method, when only small oligomers are present.
The sandwich immunoassay used follows the method described previously by Taylor et al (28, 30). Briefly, 96-well ELISA plates (Maxisorb) were coated with mouse monoclonal antibody 6E10 diluted 1:1000 in assay buffer (Tris-buffered saline (TBS), pH 7.4, containing 0.05% gamma globulins and 0.005% Tween 20). […] Enhancer solution was added and the plates were read using the time-resolved fluorescence setting for europium on a Wallac Victor 2 plate reader.
This is a more sensitive test than the ThT assay for the detection of early oligomeric forms of Aβ [28]. […] Enhancer solution was added and the plates were read on a Wallac Victor 2 plate reader, using the time-resolved fluorescence setting for europium.

Aβ42 [2] = molecular target: T1, Aβ42; assay: Atomic force microscopy of incubated Aβ42; type: biochemical; conditions: 1:2 molar ratio RI-OR2-TAT:Aβ42; Aβ42 25 μM, 24 h
Procedure: Aβ42 was incubated at 25 μM in the presence or absence of 12.5 μM RI-OR2-TAT in PBS, pH 7.4, for 24 h. Samples were diluted 1:10 in PBS and then a 2 μl aliquot was deposited onto the surface of freshly cleaned mica and allowed to dry.
Images were obtained in tapping mode using a Multimode™ SPM NanoScope IIIa microscope (Digital Instruments, New York, USA). Silicon cantilever tips measuring 125 μm long, 30 μm wide and with a tip radius <10 nm were used (Budget Sensors, Bulgaria). The resonance frequency was 300 kHz and force constants 40 Nm. All images were first order flattened and edited using WSxM 5.0 Develop 4.3 software, (Nanotech, Madrid, Spain).

SHSY-5Y cells = assay: MTT cell viability assay, toxicity of PINPs alone; type: cell-based; conditions: 10 μM PINPs, 24 hours
Procedure: SHSY 5Y cells were grown and maintained in DMEM (Dulbecco's Modified Eagle Medium) supplemented with FBS under standard mammalian cell culture conditions. During treatment cells were kept in Optimem plus or minus peptide liposomes in 96 well plates at 20000 cells per well for 24 hours, again under standard culture conditions. For cell protection assays 5 μM of pre-aggregated Aβ1-42 was added at the same time as peptide liposomes. Cell viability was assessed for four wells for each treatment using a Promega CellTiter assay kit.

CC(=O)N[C@H](CCCNC(=N)N)C(=O)NCC(=O)N[C@H](Cc1ccccc1)C(=O)N[C@H](Cc1ccccc1)C(=O)N[C@@H](C(=O)N[C@H](CC(C)C)C(=O)N[C@H](CCCCN)C(=O)NCC(=O)N[C@H](CCCNC(=N)N)C(=O)N[C@H](CCCNC(=N)N)C(=O)N[C@H](CCCNC(=N)N)C(=O)N[C@H](CCCNC(=N)N)C(=O)N[C@H](CCC(N)=O)C(=O)N[C@H](CCCNC(=N)N)C(=O)N[C@H](CCCNC(=N)N)C(=O)N[C@H](CCCCN)C(=O)N[C@H](CCCCN)C(=O)N[C@H](CCCNC(=N)N)C(=O)NCC(=O)N[C@H](Cc1ccc(O)cc1)C(N)=O)C(C)C [RI-OR2-TAT, Ac-rGffvlkGrrrrqrrkkrGy-NH2] (Ac-[dR]G[dF][dF][dV][dL][dK]G[dR][dR][dR][dR][dQ][dR][dR][dK][dK][dR]G[dY]-NH2)
development of immunoassay signal (oligomer formation) (Aβ42 [1]): considerably reduced | oligomer formation in AFM images (Aβ42 [2]): clear inhibition of oligomer formation

PINPs: RI-OR2-TAT covalently attached to nanoliposomes (cholesterol:sphingomyelin [1:1] with 2.5% maleimide) via an additional cysteine (Ac-[dR]G[dF][dF][dV][dL][dK]G[dR][dR][dR][dR][dQ][dR][dR][dK][dK][dR]G[dY][dC]; not fully specified (residue 21); also: C-terminal D-Cys coupled via its thiol to maleimide lipid of nanoliposome)
toxicity to cells (SHSY-5Y cells): not toxic to cells | Absorbance units (560 nm) (SHSY-5Y cells; untreated cells 3.608, lysed cells 0.654): 3.610 Absorbance units
